According to US20180201609A1 (AURIGENE DISCOVERY TECHNOLOGIES LIMITED, priority 2015, published 2018):
Counter-ions that a name gives are not always drawn.

Target: T1, IRAK-4 enzyme (Homo sapiens, UniProt Q9NWZ3)
T1 construct: purchased Millipore, USA
T1 sequence (Q9NWZ3 1-460): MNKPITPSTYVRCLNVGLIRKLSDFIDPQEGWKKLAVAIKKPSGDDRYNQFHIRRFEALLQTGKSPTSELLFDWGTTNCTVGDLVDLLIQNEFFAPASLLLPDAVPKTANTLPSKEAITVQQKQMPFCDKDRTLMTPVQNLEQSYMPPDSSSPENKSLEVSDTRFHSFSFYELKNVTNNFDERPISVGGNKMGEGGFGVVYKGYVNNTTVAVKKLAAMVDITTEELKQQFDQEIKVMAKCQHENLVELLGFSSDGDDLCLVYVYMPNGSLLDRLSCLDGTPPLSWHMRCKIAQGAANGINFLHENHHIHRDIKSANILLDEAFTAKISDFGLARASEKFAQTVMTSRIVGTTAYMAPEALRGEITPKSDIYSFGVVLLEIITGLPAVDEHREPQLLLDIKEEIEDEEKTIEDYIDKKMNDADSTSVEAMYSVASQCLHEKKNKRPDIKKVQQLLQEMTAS
Assay: IRAK-4 Biochemical Assay (TR-FRET)
Settings: recombinant IRAK-4 kinase, 20 μM ATP; for inhibition at 0.1 µM: 0.1 μM compound; for inhibition at 1 µM: 1 μM compound
Method: Compounds were tested for their potential to inhibit IRAK-4 enzyme in a TR-FRET assay using recombinant IRAK-4 kinase from Millipore, USA. The assay buffer was 50 mM Tris-HCl pH 7.5, 20 mM MgCl2, 1 mM EGTA, 2 mM DTT, 3 mM MnCl2 and 0.01% Tween 20.5 ng of IRAK-4 kinase was used for the assay. After pre-incubation of enzyme with test compound for 30 minutes at room temperature, a substrate mixture containing 100 nM Biotin Histone H3 (Millipore, USA) and 20 μM ATP (Sigma, USA) was added and the reaction was incubated for 30 min. Post incubation, the reaction was stopped by the addition of stop mix containing 40 mM EDTA, 1 nM of Europium-Anti-Phospho-Histone H3 (Ser10) antibody (Perkin Elmer, USA) and 20 nM SureLight Allophycocyanin-Streptavidin (Perkin Elmer, USA). The fluorescence emission at 615 nm and 665 nm were measured at an excitation of 340 nm and the percent inhibition was estimated from the ratio of the fluorescence intensities [(F665/F615)×10000].
The compounds of the present invention were screened in the above mentioned assay and the percent inhibition data is summarized in the Table 1.

Compound	inhibition at 0.1 µM	inhibition at 1 µM
Cn1ncc2cc(NC(=O)c3coc(-c4cccnc4N)n3)c(N3CCC(O)CC3)cc21 [Example 1, 2-(2-aminopyridin-3-yl)-N-(6-(4-hydroxypiperidin-1-yl)-1-methyl-1H-indazol-5-yl)oxazole-4-carboxamide hydrochloride]	96%	97%
Cc1cc(-c2nc(C(=O)Nc3cc4cnn(CCN(C)C)c4cc3N3CCC(O)CC3)co2)ccn1 [Example 2, N-(1-(2-(dimethylamino)ethyl)-6-(4-hydroxypiperidin-1-yl)-1H-indazol-5-yl)-2-(2-methylpyridin-4-yl)oxazole-4-carboxamide]	95%	98%
Cc1cc(-c2nc(C(=O)Nc3cc4cnn(CCN5CCOCC5)c4cc3N3CCC(O)CC3)co2)ccn1 [Example 3, N-(6-(4-hydroxypiperidin-1-yl)-1-(2-morpholinoethyl)-1H-indazol-5-yl)-2-(2-methylpyridin-4-yl)oxazole-4-carboxamide]	97%	100%
COCCCn1ncc2cc(NC(=O)c3coc(-c4ccnc(C)c4)n3)c(N3CCC(O)CC3)cc21 [Example 4, N-(6-(4-hydroxypiperidin-1-yl)-1-(3-methoxypropyl)-1H-indazol-5-yl)-2-(2-methylpyridin-4-yl)oxazole-4-carboxamide hydrochloride]	95%	99%
Cc1cc(-c2nc(C(=O)Nc3cc4cnn(CCCN5CCOCC5)c4cc3N3CCC(O)CC3)co2)ccn1 [Example 5, N-(6-(4-hydroxypiperidin-1-yl)-1-(3-morpholinopropyl)-1H-indazol-5-yl)-2-(2-methylpyridin-4-yl)oxazole-4-carboxamide]	94%	99%
Cc1cc(-c2nc(C(=O)Nc3cc4cnn(CCN5CCN(C)CC5)c4cc3N3CCC(O)CC3)co2)ccn1 [Example 6, N-(6-(4-hydroxypiperidin-1-yl)-1-(2-(4-methylpiperazin-1-yl)ethyl)-1H-indazol-5-yl)-2-(2-methylpyridin-4-yl)oxazole-4-carboxamide]	79%	96%
COCCn1ncc2cc(NC(=O)c3coc(-c4ccnc(N)c4)n3)c(N3CCC(O)CC3)cc21 [Example 7, 2-(2-aminopyridin-4-yl)-N-(6-(4-hydroxypiperidin-1-yl)-1-(2-methoxyethyl)-1H-indazol-5-yl)oxazole-4-carboxamide hydrochloride]	96%	98%
Cc1nn(C)c2cc(N3CCC(CO)CC3)c(NC(=O)c3cnn4cccnc34)cc12 [Example 8, N-(6-(4-(hydroxymethyl)piperidin-1-yl)-1,3-dimethyl-1H-indazol-5-yl)pyrazolo[1,5-a]pyrimidine-3-carboxamide hydrochloride]	43%	91%
COCCn1nc(C)c2cc(NC(=O)c3coc(-c4ccnc(N)c4)n3)c(N3CCC(O)CC3)cc21 [Example 9, 2-(2-aminopyridin-4-yl)-N-(6-(4-hydroxypiperidin-1-yl)-1-(2-methoxyethyl)-3-methyl-1H-indazol-5-yl)oxazole-4-carboxamide]	97%	99%
COCCn1nc(C)c2cc(NC(=O)c3coc(-c4ccnc(N)c4)n3)c(N3CCC(CO)CC3)cc21 [Example 10, 2-(2-aminopyridin-4-yl)-N-(6-(4-(hydroxymethyl)piperidin-1-yl)-1-(2-methoxyethyl)-3-methyl-1H-indazol-5-yl)oxazole-4-carboxamide hydrochloride]	99%	99%

Next, values leading:

inhibition at 0.1 µM	inhibition at 1 µM	Compound
26%	59%	Cc1nn(C)c2cc(N3CCC(CO)CC3)c(NC(=O)c3coc(-c4cc(F)c(=O)n(C)c4)n3)cc12 [Example 11, 2-(5-fluoro-1-methyl-6-oxo-1,6-dihydropyridin-3-yl)-N-(6-(4-(hydroxymethyl)piperidin-1-yl)-1,3-dimethyl-1H-indazol-5-yl)oxazole-4-carboxamide hydrochloride]
95%	96%	C=CCOCC1CCN(c2cc3c(cc2NC(=O)c2coc(-c4ccnc(N)c4)n2)c(C)nn3C)CC1 [Example 12, N-(6-(4-((allyloxy)methyl)piperidin-1-yl)-1,3-dimethyl-1H-indazol-5-yl)-2-(2-aminopyridin-4-yl)oxazole-4-carboxamide]
98%	99%	Cc1cc(-c2nc(C(=O)Nc3cc4cn(C)nc4nc3N3CCCCC3)co2)ccn1 [Example 13, N-(2-methyl-6-(piperidin-1-yl)-2H-pyrazolo[3,4-b]pyridin-5-yl)-2-(2-methylpyridin-4-yl)oxazole-4-carboxamide hydrochloride]
57%	94%	Cn1cc2cc(NC(=O)c3cccc(N4CC[C@H](O)C4)n3)c(N3CCCCC3)nc2n1 [Example 14, (S)-6-(3-hydroxypyrrolidin-1-yl)-N-(2-methyl-6-(piperidin-1-yl)-2H-pyrazolo[3,4-b]pyridin-5-yl)picolinamide]
34%	78%	Cn1cc2cc(NC(=O)c3cccc(N4CC[C@H](N)C4)n3)c(N3CCCCC3)nc2n1 [Example 15, (S)-6-(3-aminopyrrolidin-1-yl)-N-(2-methyl-6-(piperidin-1-yl)-2H-pyrazolo[3,4-b]pyridin-5-yl)picolinamide]
99%	99%	Cc1cc(-c2nc(C(=O)Nc3cc4cnn(C)c4nc3N3CCCCC3)co2)ccn1 [Example 16, N-(1-methyl-6-(piperidin-1-yl)-1H-pyrazolo[3,4-b]pyridin-5-yl)-2-(2-methylpyridin-4-yl)oxazole-4-carboxamide]
	90%	Cn1cc2cc(NC(=O)c3coc(N4CC[C@H](N)C4)n3)c(N3CCCCC3)nc2n1 [Example 17, (S)-2-(3-aminopyrrolidin-1-yl)-N-(2-methyl-6-(piperidin-1-yl)-2H-pyrazolo[3,4-b]pyridin-5-yl)oxazole-4-carboxamide]
	93%	Cn1cc2cc(NC(=O)c3coc(N4CC[C@H](O)C4)n3)c(N3CCCCC3)nc2n1 [Example 18, (S)-2-(3-hydroxypyrrolidin-1-yl)-N-(2-methyl-6-(piperidin-1-yl)-2H-pyrazolo[3,4-b]pyridin-5-yl)oxazole-4-carboxamide]
	96%	C[C@H](O)Cn1cc(-c2cccc(C(=O)Nc3cc4cn(C)nc4nc3N3CCCCC3)n2)cn1 [Example 19, (S)-6-(1-(2-hydroxypropyl)-1H-pyrazol-4-yl)-N-(2-methyl-6-(piperidin-1-yl)-2H-pyrazolo[3,4-b]pyridin-5-yl)picolinamide]
	72%	Cc1cnccc1-c1nc(C(=O)Nc2cc3cn(C)nc3nc2N2CC[C@H](O)C2)co1 [Example 20, (S)—N-(6-(3-hydroxypyrrolidin-1-yl)-2-methyl-2H-pyrazolo[3,4-b]pyridin-5-yl)-2-(3-methylpyridin-4-yl)oxazole-4-carboxamide]
	89%	Cc1cc(-c2nc(C(=O)Nc3cc4cn(C)nc4nc3N3CC[C@H](O)C3)co2)ccn1 [Example 21, (S)—N-(6-(3-hydroxypyrrolidin-1-yl)-2-methyl-2H-pyrazolo[3,4-b]pyridin-5-yl)-2-(2-methylpyridin-4-yl)oxazole-4-carboxamide]
	65%	Cn1cc2cc(NC(=O)c3coc(N4CC[C@H](O)C4)n3)c(C3CC3)nc2n1 [Example 22, (S)—N-(6-cyclopropyl-2-methyl-2H-pyrazolo[3,4-b]pyridin-5-yl)-2-(3-hydroxypyrrolidin-1-yl)oxazole-4-carboxamide]
	33%	Cc1cc(-c2nc(C(=O)Nc3cc4cnn(C)c4nc3N3CC[C@H](O)C3)co2)ccn1 [Example 23, (S)—N-(6-(3-hydroxypyrrolidin-1-yl)-1-methyl-1H-pyrazolo[3,4-b]pyridin-5-yl)-2-(2-methylpyridin-4-yl)oxazole-4-carboxamide]
99%	99%	Cn1cc2cc(NC(=O)c3coc(-c4ccnc(N)c4)n3)c(N3CCCCC3)nc2n1 [Example 24]
67%	97%	COCCn1ncc2cc(NC(=O)c3coc(-c4ccnc(C)c4)n3)c(N3CCC(O)CC3)nc21 [Example 25, N-(6-(4-hydroxypiperidin-1-yl)-1-(2-methoxyethyl)-1H-pyrazolo[3,4-b]pyridin-5-yl)-2-(2-methylpyridin-4-yl)oxazole-4-carboxamide]
